Here are results for 5 molecules from US12337042B2, “Structural optimization method to improve the theranostic performance of peptide receptor-targeted radionuclide therapy for cancers” (University of Iowa Research Foundation, priority 2020, dated 2025).

Data set [1] is described as follows: ^212Pb-PSC-PEG2-TOC toxicity studies with escalating doses. The data set is classed as in vivo, CD-1 Elite (SOPF) male mice. An excerpt:
FIG. 12A-12F. Dosimetry and toxicities of escalated doses (up to 150 μCi) of ^212Pb—PSC-PEG2-TOC in CD-1 Elite (SOPF) male mice. (A) Body weight change after the injection of ^212Pb-PSC-PEG2-TOC. […] (B) ^212Pb-PSC-PEG2-TOC biodistribution in CD-1 Elite (SOPF) male mice. ^212Pb is used for the study to include the impact of potential demetallation of ^212Pb and redistribution in bone marrow. (C) Estimated renal dose arising from the escalating doses of ^212Pb-PSC-PEG2-TOC based on the biodistribution in CD-1 Elite (SOPF) male mice. Organ level internal dose assessment (OLINDA) V2.1 was used for dose estimation in mice using 30 g mouse voxel phantom model. (D-E) The levels of renal toxicity markers arising from the escalating doses of ^212Pb-PSC-PEG2-TOC assessed by urine neutrophil gelatinase-associated lipocalin (uNGAL; D) at day 1 and day 3 post-administration and blood urea nitrogen (BUN; E) at 3 months post-administration.
^212Pb-PSC-PEG2-TOC Toxicity Studies
Escalating doses (0, 0.37, 1.85, 3.33, and 5.55 MBq or 0, 10, 50, 90, and 150 μCi) of ^212Pb-PSC-PEG2-TOC were administered to tumor-free CD-1 Elite (SOPF) male mice (n=4 for each group). Body weight was measured 2 times a week by 3 weeks post-injection and 1 time a week afterwards. Urine samples were collected (via metabolic case) at day 1 and day 3 post-administration to evaluate acute tubular toxicities in kidneys. […]

Data set [2] deals with T1, SSTR2-positive AR42J cells (Rattus norvegicus, UniProt P30680).
T1 construct: endogenous in cells; host or cells: AR42J rat pancreatic acinar cells
Put plainly: ^125I-TOC competitive binding assay in AR42J cells. The protocol:
^125I-TOC Competitive Binding Assay
TOC was labeled with iodine-125 (^125I) by conventional chloramine T method as described elsewhere (23). 1.0×10^5 AR42J rat pancreatic acinar cells were plated into poly-D-lysine-coated 24-well plates. […] The cells were then washed twice with ice-cold PBS and lysed with 0.5 N NaOH, and the radioactivity was measured via a gamma counter. The half maximal inhibitory concentration (IC50) was determined using GraphPad Prism V8.0.

[3] abbreviates: AR42J cells, 2 hours at 37° C., mean ± spread, read-out: IC50, competitive inhibition of ^125I-tyr^3-octreotide (^125I-TOC) binding.

Read-outs that look alike come from different tables or passages of the source.

In general, IC50 refers to the point on the concentration scale where inhibition reaches its midpoint.

T1 sequence (P30680 whole entry): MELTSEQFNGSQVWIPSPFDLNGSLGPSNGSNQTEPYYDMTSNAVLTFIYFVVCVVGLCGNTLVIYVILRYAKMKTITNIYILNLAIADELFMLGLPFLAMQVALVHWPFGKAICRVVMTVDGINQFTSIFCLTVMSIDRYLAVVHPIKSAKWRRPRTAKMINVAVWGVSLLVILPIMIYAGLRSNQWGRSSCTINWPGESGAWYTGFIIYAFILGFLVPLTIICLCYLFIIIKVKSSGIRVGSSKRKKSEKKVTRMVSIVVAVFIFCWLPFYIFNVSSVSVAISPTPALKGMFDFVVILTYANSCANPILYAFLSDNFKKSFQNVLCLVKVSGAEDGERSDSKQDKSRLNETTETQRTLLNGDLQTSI

For the molecule `C[C@@H](O)[C@@H]1NC(=O)[C@H](CCCCN)NC(=O)[C@@H](Cc2c[nH]c3ccccc23)NC(=O)[C@H](Cc2ccc(O)cc2)NC(=O)[C@@H](NC(=O)[C@@H](Cc2ccccc2)NC(=O)CCOCCOCCNC(=O)CN2CCN(CC(=O)O)CCN(CC(N)=O)CCN(CC(=O)O)CC2)CSSC[C@@H](C(=O)N[C@H](CO)[C@@H](C)O)NC1=O` [^212Pb-PSC-PEG2-TOC, metal not drawn], in data set [1] (doses up to 150 μCi, week 1, 2, and 4 post-administration), the “hematologic toxicity by complete blood count (CBC)” value is reported as “reversible hematologic toxicity”. In data set [1] (escalated doses up to 150 μCi, tumor-free mice), the “body weight change after injection” value is reported as “After an initial decrease in body weight in first days, the body weight of the treated mice increased gradually”.

With `C[C@@H](O)[C@@H]1NC(=O)[C@H](CCCCN)NC(=O)[C@@H](Cc2c[nH]c3ccccc23)NC(=O)[C@H](Cc2ccc(O)cc2)NC(=O)[C@@H](NC(=O)[C@@H](Cc2ccccc2)NC(=O)CN2CCN(CC(=O)O)CCN(CC(N)=O)CCN(CC(=O)O)CC2)CSSC[C@@H](C(=O)N[C@H](CO)[C@@H](C)O)NC1=O` [PSC-TOC], the IC50 in data set [2] (setting [3]) was 6.2 ± 1.1 nM.

Consider `C[C@@H](O)[C@@H]1NC(=O)[C@H](CCCCN)NC(=O)[C@@H](Cc2c[nH]c3ccccc23)NC(=O)[C@H](Cc2ccc(O)cc2)NC(=O)[C@@H](NC(=O)[C@@H](Cc2ccccc2)NC(=O)CCOCCOCCNC(=O)CN2CCN(CC(=O)O)CCN(CC(N)=O)CCN(CC(=O)O)CC2)CSSC[C@@H](C(=O)N[C@H](CO)[C@@H](C)O)NC1=O` [PSC-PEG2-TOC], for which the IC50 in data set [2] (setting [3]) was 5.3 ± 1.2 nM.

In turn, `C[C@@H](O)[C@@H]1NC(=O)[C@H](CCCCN)NC(=O)[C@@H](Cc2c[nH]c3ccccc23)NC(=O)[C@H](Cc2ccc(O)cc2)NC(=O)[C@@H](NC(=O)[C@H](N)Cc2ccccc2)CSSC[C@@H](C(=O)N[C@H](CO)[C@@H](C)O)NC1=O` [TOC, Tyr^3-octreotide, reference compound] registered an IC50 in data set [2] of 3.1 ± 1.1 nM.

For `C[C@@H](O)[C@@H]1NC(=O)[C@H](CCCCN)NC(=O)[C@@H](Cc2c[nH]c3ccccc23)NC(=O)[C@H](Cc2ccc(O)cc2)NC(=O)[C@@H](NC(=O)[C@@H](Cc2ccccc2)NC(=O)CCOCCOCCOCCOCCNC(=O)CN2CCN(CC(=O)O)CCN(CC(N)=O)CCN(CC(=O)O)CC2)CSSC[C@@H](C(=O)N[C@H](CO)[C@@H](C)O)NC1=O` [PSC-PEG4-TOC], in data set [2] (setting [3]), the IC50 was 9.4 ± 1.3 nM.
